# Assay: RP, Waters ACQUITY UPLC BEH C18, 50 × 2.1 mm, 1.7 µm, 40 °C, 0.6 mL/min, estimated dead time 0.18 min; A: water + 0.1% formic acid, pH 3; B: acetonitrile + 0.1% formic acid, pH 3; gradient (min/%B) 0/5 7/100 8/100
# Settings: stereoisomer not certain
row,Compound,LC retention time [min]
1,"COc1ccc(OC)c([N+](=O)[O-])c1/C=C/[N+](=O)[O-] [1,4-dimethoxy-2-nitro-3-[(1E)-2-nitroethenyl]benzene]",0.72
2,COc1cc(O)ccc1CCC(c1ccc(O)cc1)c1cc(CCC(=O)c2ccc(O)cc2)c(O)cc1O (stereo not given),2.1
3,"CCCCCCCCCCCCCCC[C@@H]1CCC[C@@H](C)N1 [(2R,6R)-2-methyl-6-pentadecylpiperidine]",5.12
4,CCCCCCCCCCCCCCC(O)C(O)CCC(O)C1CCC(CCCCCC(O)CC2=CC(C)OC2=O)O1 (stereo not given),6.01
5,CN1CCc2cc3c(c4c2C1CC41C=CC(=O)C=C1)OCO3 (stereo not given),1.08
6,CC1CCC2(C)C(CCC(O)C2(C)O)C1(C)CC(O)c1ccoc1 (stereo not given),5.61
7,CC(C)=CCCC(C)=CCC1=Cc2c(O)c3c(c(CC=C(C)C)c2OC1O)OC12C(=CC4CC1C(C)(C)OC2(CC=C(C)C(=O)O)C4=O)C3=O (stereo not given),6.07
8,C=C(CO)C(=O)OC1CC(=C)C2CC(O)C(=C)C2C2OC(=O)C(=C)C12 (stereo not given),2.16
9,C=C(C(=O)CC(C)C1CCC2(C)C3CCC4C(C)(C(=O)OC5OC(C)C(O)C(O)C5O)C(O)CCC45CC35CCC12C)C(C)C (stereo not given),5.23
10,C=C1COC(=O)C12C[C@@]1(C)C([C@@H](OC(=O)/C=C/SC)CC[C@@H]1C)[C@H]2OC(C)=O (stereo not given in full),4.07
11,C/C=C1\CN2CCc3c([nH]c4ccccc34)[C@@H]2C[C@@H]1/C(=C\OC)C(=O)OC,2.41
12,C=C1CC23CCC4C(C)(C(=O)O)CCCC4(C)C2CCC1C3 (stereo not given),5.69
13,COc1ccc2cc1-c1cc(ccc1O)C[C@@H]1NCCc3cc4c(cc31)Oc1c(c(OC)c(O)c3c1[C@H](C2)N(C)CC3)O4,1.69
14,CC(=O)OC(C)(C)/C=C/C(=O)[C@](C)(O)[C@H]1[C@H](O)C[C@@]2(C)[C@@H]3CC=C4C(C=C(O)C(=O)C4(C)C)[C@]3(C)C(=O)C[C@]12C (stereo not given in full),3.63
15,COc1cc2c(cc1OC)-c1c(OC)c(OC)cc3c1C(C2)N(C)CC3 (stereo not given),1.87
16,COc1c(O)cc2c3c1C1(C=CC(=O)C=C1)CC3N(C)CC2 (stereo not given),0.738
17,CC[C@@H]1C(=O)N2CCc3c([nH]c4ccccc34)[C@H]2CC1/C(=C\OC)C(=O)OC (stereo not given in full),2.38
18,CCN1CC2(COC(=O)c3ccccc3NC(=O)C(C)CC(=O)O)CCC(OC)C34C5CC6C(OC)CC(O)(C5C6OC)C(O)(C(OC)C23)C14 (stereo not given),2.37
19,COc1ccc(C2Oc3c(c(O)cc(O)c3C3C(=O)c4c(O)cc(O)cc4OC3c3ccc(O)cc3)C(=O)C2O)cc1O (stereo not given),1.69
20,CC(O)c1cncc2c(=O)n3c(cc12)-c1[nH]c2ccccc2c1CC3 (stereo not given),3.25
21,C[C@H](C/C=C/C(C)(C)O)[C@H]1CC[C@@]2(C)C3C(=O)C=C4C(CCC(O)C4(C)C)[C@]3(C)CC[C@]12C (stereo not given in full),4.37
22,COC1=CC(=O)C2(c3cc(=O)c4c(O)cc(O)cc4o3)C(CC=C(C)C2C[C@@]2(O)C(C)(O)CC[C@H]3C(C)(C)C[C@H](O)C[C@@]32C)C1=O (stereo not given in full),1.09
23,C=C1C(=O)O[C@@H]2C[C@@]3(C)CCC[C@H](C)C3=C[C@H]12,4.26
24,COC(=O)C1=COC(C)C2CN3CCC4(C(=O)Nc5ccccc54)C3CC12 (stereo not given),1.69

row,Compound,LC retention time [min]
1,CCC(C)C(=O)C1=C(O)C2(CC=C(C)C)CC(CC=C(C)C)C(C)(C)C(C(CC(=O)O)c3ccccc3)=C2OC1=O (stereo not given),6.36
2,COc1ccc2c(c1)CC1c3c(cc4c(c3-2)OCO4)CCN1C (stereo not given),2.15
3,C=C(C)C(CC=C(C)C)Cc1c(O)cc(OC)c2c1OC(c1ccc(O)cc1O)CC2=O (stereo not given),4.6
4,C=C(C(=O)C(O)C(C)C1C(OC(C)=O)CC2(C)C3CCC4C(C)C(=O)CCC45CC35CCC12C)C(C)CO (stereo not given),4.6
5,COc1cc2c(cc1O)CC1NCCc3cc(OC)c(OC)c-2c31 (stereo not given),1.58
6,COc1cc(CC(COC(C)=O)C(COC(=O)/C=C/c2ccc(O)c(O)c2)Cc2ccc(O)c(OC)c2)ccc1O (stereo not given),1.83
7,O=C(/C=C/c1ccc(O)cc1)OC[C@H]1O[C@@H](Oc2cc(O)c3c(=O)cc(-c4ccc(O)cc4)oc3c2)[C@H](OC(=O)/C=C/c2ccc(O)cc2)[C@@H](O)[C@@H]1O,3.15
8,CC[C@H]1NC2C[C@@]3(C(=O)N(OC)c4cc(OC)ccc43)C3OCC2C1[C@@H]3O (stereo not given in full),1.32
9,C[C@@H]1O[C@H](O[C@@H]2[C@@H](O)[C@H](OCCc3ccc(O)c(O)c3)O[C@H](CO)[C@H]2OC(=O)/C=C/c2ccc(O)c(O)c2)[C@H](O)[C@H](O)[C@H]1O,0.258
10,C=C(C(=O)C(O)C(C)C1C(OC(C)=O)CC2(C)C3CC(O)C4C(C)C(=O)C=CC45CC35CCC12C)C(C)CO (stereo not given),3.41
11,COc1c(O)cc(-c2oc3cc(O)cc(O)c3c(=O)c2O[C@@H]2O[C@@H](C)[C@H](O)[C@@H](O)[C@H]2O)cc1O,0.287
12,COC(=O)[C@@]12C[C@@H]3C[C@H]([C@H](C)O)C1N(CCc1c2[nH]c2ccccc12)C3,1.91
13,C[C@@H]1CC2(NCCS2)[C@]2(O)OC3C[C@@]4(C=O)C(CCC5C4CC[C@]4(C)C(C6=CC(=O)OC6)CC(O)[C@]54O)CC3OC2O1 (stereo not given in full),0.365
14,C=C1COC(=O)C12C[C@@]1(C)C([C@@H](OC(=O)/C(C)=C\C)CC[C@@H]1C)[C@H]2OC(C)=O (stereo not given in full),4.16
15,CC(C)=CCC1CC2(CC=C(C)C)C(O)=C(C(=O)CC(C)C)C(=O)OC2=C(C(CC(=O)O)c2ccccc2)C1(C)C (stereo not given),6.29
16,"CCCCCCCCC/C=C\CCCC[C@@H]1CCC[C@@H](C)N1 [(2R,6R)-2-methyl-6-[(5Z)-pentadec-5-en-1-yl]piperidine]",4.68
17,COC(=O)C1=CC(O)C23OC1CC2(C)CC[C@H](C(C)C)O3 (stereo not given in full),3.33
18,CC(C)=CC(O)C[C@@H](C)[C@H]1CC[C@@]2(C)C3C(=O)C=C4C(CCC(O)C4(C)C)[C@]3(C)CC[C@]12C (stereo not given in full),4.38
19,C/C=C1/CN2CCc3c([nH]c4ccccc34)[C@@](CO)(C(=O)OC)[C@H]1CC2,1.32
20,CC1CC(O)C2(C)C(CCC(O)C2(C)O)C1(C)CC(=O)c1ccoc1 (stereo not given),2.35
21,"C=CCc1ccc(O)c(-c2ccc(O)c(CC=C)c2)c1 [3',5-bis(prop-2-en-1-yl)-[1,1'-biphenyl]-2,4'-diol]",3.18
22,COc1cc(/C=C/C(=O)OCC(Cc2ccc(O)c(OC)c2)C(COC(C)=O)Cc2ccc(O)c(OC)c2)ccc1O (stereo not given),2.3
23,CC1CC2CCCC3N4C(=O)CCCC4CC(C1)N23 (stereo not given),0.978
24,COc1c(C=O)c(O)cc2c1C(=O)c1ccccc1C2=O,3.59

row,Compound,LC retention time [min]
1,O=C(c1ccc(O)cc1O)[C@H]1[C@H](C(=O)c2ccc(O)cc2O)[C@H](c2ccc(O)cc2)O[C@@H]1c1ccc(O)cc1,2.81
2,C=C(C(=O)C(O)C(C)C1C(OC(C)=O)CC2(C)C3CCC4C(C)C(=O)C=CC45CC35CCC12C)C(C)CO (stereo not given),4.1
3,"CCCCCCCCCCCCC[C@@H]1CCC[C@@H](C)N1 [(2R,6R)-2-methyl-6-tridecylpiperidine]",4.58
4,"CCCCCCCCCCC/C=C\CC[C@@H]1CCC[C@@H](C)N1 [(2R,6S)-2-methyl-6-[(3Z)-pentadec-3-en-1-yl]piperidine]",4.84
5,CCCC(CC(=O)O)C1=C2OC(=O)C(C(=O)CC(C)C)=C(O)C2(CC=C(C)C)CC(CC=C(C)C)C1(C)C (stereo not given),6.51
6,O=C1c2ccc(O)cc2OC(c2ccc(O)cc2)C1C1C(=O)c2ccc(O)cc2OC1c1ccc(O)cc1 (stereo not given),2.67
7,CCN1CC2(COC(=O)c3ccccc3NC(=O)CCC(=O)O)CCC(OC)C34C5CC6C(OC)CC(O)(C5C6OC)C(O)(C(OC)C23)C14 (stereo not given),2.22
8,C=C1[C@@H](O)C[C@H]2C(C)(C)C[C@H](O)C[C@]2(C)[C@H]1CC1C(C)=CCC2C(=O)C(OC)=CC(=O)C21c1cc(=O)c2c(O)cc(O)cc2o1 (stereo not given in full),0.702
9,"Cn1c(Cc2ccccc2)nc(=O)c2ccccc21 [2-benzyl-1-methyl-1,4-dihydroquinazolin-4-one]",1.8
10,CC1=C2CC3(C)C(C)CCCC3CC2(O)OC1=O (stereo not given),3.6
11,COc1c(O)c(O)c(-c2c(O)c(O)c(OC)c3oc4ccccc4c23)c2c1oc1ccccc12,3.58
12,C[C@@H]1CC2(N=CCS2)[C@]2(O)OC3C[C@@]4(C=O)C(CCC5C4CC[C@]4(C)C(C6=CC(=O)OC6)CC(O)[C@]54O)CC3OC2O1 (stereo not given in full),0.41
13,CC1(C(=O)O)CCCC2(C)C3CCC4CC3(C=C4C=O)CCC12 (stereo not given),4
14,C/C=C/C(CC1C(=O)C=CC1(O)CCCCCCCC(=O)O)OC(C)=O (stereo not given),2.88
15,C/C(=C\C1CC(C2CCC34CC23C=CC2C3(C)CC=C5CC(c6ccccc6)OCC5(C)C3CC(O)C24C)C(=O)O1)CO (stereo not given),5.22
16,C[C@@H]1CC2(N=CCS2)[C@]2(O)OC3C[C@@]4(C=O)C(CCC5C4CC[C@]4(C)C(C6=CC(=O)OC6)CC[C@]54O)CC3OC2O1 (stereo not given in full),0.662
17,CC(C)=CCc1c(O)cc2oc(-c3ccc(O)cc3)c(O)c(=O)c2c1O,3.98
18,CC(=O)OC(C)(C)C=CC(=O)C(C)(O)C1C(O)CC2(C)C3CC=C4C(=COC(=O)C4(C)C)C3(C)C(=O)CC12C (stereo not given),3.14
19,CC(=O)OC(C)(C)CCC(=O)[C@](C)(O)C1[C@H](O)C[C@@]2(C)C3CC=C4C(C[C@H](O)[C@@H](O)C4(C)C)[C@]3(C)C(=O)C[C@]12C (stereo not given in full),3.06
20,C=C1[C@@H](O)C[C@@H]2[C@](C)(CCC[C@@]2(C)C(=O)O)[C@H]1CC1C(C)=CCC2C(=O)C(OC)=CC(=O)C21c1cc(=O)c2c(O)cc(O)cc2o1 (stereo not given in full),2.95
21,CC(=O)O[C@@H](C[C@@H](C)C1=C2CC(O)C3[C@@]4(C)CCC(=O)C(C)(C)C4CC[C@]3(C)[C@@]2(C)CC1)[C@H]1OC1(C)C (stereo not given in full),5.4
22,COC(=O)C1=COC(OC2OC(CO)C(O)C(O)C2O)C2C(O)CN3CCc4c([nH]c5ccccc45)[C@@H]3CC12 (stereo not given in full),1.29
